Read-outs that look alike come from different tables or passages of the source.
How the values were obtained:
beet armyworm larvae = experiment: Leaf dip test, beet armyworm larvae; assay type: in vivo; settings: Spodoptera exigua, foliar, Bta 2.7 ppm, cyantraniliprole 1.0 ppm, mixture 2.7 ppm + 1.0 ppm, read-out: % Efficacy
Procedure: (§1) The present invention is not limited to the products or formulation types used herein. In each example below, the studies were conducted as follows.
(§2) For these tests, standardized laboratory leaf dip methods were used to inoculate plant material with treatment(s). Dry, treated leaves were placed into Petri dishes (100×25 mm) containing filter paper wetted with 500 μl of distilled H2O (“dH2O”). Each dish was then infested with between 5 and 10 larvae, dependent on species. Efficacy ratings were taken at specified intervals. Synergy ratings were calculated for each test.
(§3) % Cexp=A+B−(AB/100), where % Cexp is the expected efficacy and “in which A and B are the control levels given by the single [insecticides]. […] Adopting a conservative approach, Applicant determined synergy to be present at ratios of >1.15.

[1] = tested on: southwestern corn borer larvae; experiment: Leaf dip test, southwestern corn borer larvae; assay type: in vivo, Diatraea grandiosella; settings: foliar, Bta 2.7 ppm, cyantraniliprole 0.1 ppm, mixture 2.7 ppm + 0.1 ppm, read-out: % Efficacy
Procedure: as §1, §2, §3

soybean looper larvae = experiment: Leaf dip test, soybean looper larvae; assay type: in vivo, Chrysodeixis includens; settings: foliar, Bta 27 ppm, cyantraniliprole 1.0 ppm, mixture 27 ppm + 1.0 ppm, read-out: % Efficacy
Procedure: as §1, §2, §3

corn earworm larvae = experiment: Leaf dip test, corn earworm larvae; assay type: in vivo; settings: Helicoverpa zea, foliar, Bta 27 ppm, cyantraniliprole 10.0 ppm, mixture 27 ppm + 10.0 ppm, read-out: % Efficacy
Procedure: as §1, §2, §3

diamondback moth larvae = experiment: Leaf dip test, diamondback moth larvae; assay type: in vivo; settings: Plutella xylostella, foliar, Bta 2.7 ppm, cyantraniliprole 0.1 ppm, mixture 2.7 ppm + 0.1 ppm, read-out: % Efficacy
Text: The following examples illustrate the effectiveness of Bacillus thuringiensis subsp. aizawai and cyantraniliprole when controlling diamondback moth, cabbage looper, beet armyworm, soybean looper, corn earworm, southwestern corn borer and sugarcane borer. Xentari® was used as the source of Bacillus thuringiensis subsp. aizawai and Exirel® was used as the source of cyantraniliprole. The present invention is not limited to the products or formulation types used herein. In each example below, the studies were conducted as follows.
For these tests, standardized laboratory leaf dip methods were used to inoculate plant material with treatment(s). […] Synergy ratings were calculated for each test. […]
% Cexp=A+B−(AB/100), where % Cexp is the expected efficacy and “in which A and B are the control levels given by the single [insecticides]. […] Adopting a conservative approach, Applicant determined synergy to be present at ratios of >1.15. […]
In order to determine synergy, rates below normal field rate ranges must be used. If normal field rate ranges are used, all of the larvae would die (combining a lethal or near lethal dose of Bacillus thuringiensis subsp. aizawai with a lethal dose of cyantraniliprole would most likely lead to larvae death) in every treatment and synergy would not be able to be determined. […]

cabbage looper larvae = experiment: Leaf dip test, cabbage looper larvae; assay type: in vivo; settings: Trichoplusia ni, foliar, Bta 2.7 ppm, cyantraniliprole 0.50 ppm, mixture 2.7 ppm + 0.50 ppm, read-out: % Efficacy
Procedure: as §1, §2, §3

sugarcane borer larvae = experiment: Leaf dip test, sugarcane borer larvae; assay type: in vivo; settings: Diatraea saccharalis, foliar, Bta 2.7 ppm, cyantraniliprole 1.0 ppm, mixture 2.7 ppm + 1.0 ppm, read-out: % Efficacy
Procedure: as §1, §2, §3

`CNC(=O)c1cc(C#N)cc(C)c1NC(=O)c1cc(Br)nn1-c1ncccc1Cl` [Cyantraniliprole, 3-Bromo-1-(3-chloro-2-pyridinyl)-N-[4-cyano-2-methyl-6-(methylcarbamoyl)phenyl]-1H-pyrazole-5-carboxamide] gave an Emax at 1 ppm (beet armyworm larvae; 24 h after treatment) of 22%, an Emax at 1 ppm (beet armyworm larvae; 48 h after treatment) of 36% and an Emax at 0.1 ppm ([1]; 24 h after treatment) of 17%. For the same molecule, the Emax at 0.1 ppm ([1]; 48 h after treatment) was 24%, the Emax at 1 ppm (soybean looper larvae; 24 h after treatment) was 4% and the Emax at 1 ppm (soybean looper larvae; 48 h after treatment) was 25%. For the same molecule, the Emax at 10 ppm (corn earworm larvae; 24 h after treatment) was 49%, the Emax at 10 ppm (corn earworm larvae; 48 h after treatment) was 51% and the Emax at 0.1 ppm (diamondback moth larvae; 24 h after treatment) was 34%. For the same molecule, the Emax at 0.1 ppm (diamondback moth larvae; 48 h after treatment) was 60%, the Emax at 0.5 ppm (cabbage looper larvae; 24 h after treatment) was 18% and the Emax at 0.5 ppm (cabbage looper larvae; 48 h after treatment) was 38%. For the same molecule, the Emax at 1 ppm (sugarcane borer larvae; 24 h after treatment) was 42% and the Emax at 1 ppm (sugarcane borer larvae; 48 h after treatment) was 42%.

Source: patent US20170311608A1, “BACILLUS THURINGIENSIS SUBSP. AIZAWAI AND CYANTRANILIPROLE MIXTURES FOR DIAMONDBACK MOTH, CABBAGE LOOPER, BEET ARMYWORM, SOYBEAN LOOPER, CORN EARWORM, SOUTHWESTERN CORN BORER AND SUGARCANE BORER CONTROL” (priority 2016, published 2017)
